Source: article PMC6943742, “Peptide/Peptoid Hybrid Oligomers: The Influence of Hydrophobicity and Relative Side-Chain Length on Antibacterial Activity and Cell Selectivity” (Molecules, 2019)
In brackets after ≈: the same amount, converted by molar mass. Non-standard residues stand in square brackets, D forms with d. Residues, ends and D or L forms follow the SMILES beside them. N(5-aminopentyl)Gly = NCCCCCNCC(=O)O; Gly(N(CH2)3NH2) = NCCCNCC(=O)O; Nphe = O=C(O)CNCc1ccccc1; Nlys = NCCCCNCC(=O)O

Key:
K. pneumoniae ATCC 13883 = format: cell-based; settings: ATCC 13883, 20 h
Experimental: (§1) MIC values were evaluated by using the modified Hancock lab protocol in non-binding polystyrene microtitre plates, with bacterial suspensions of ∼2 × 10^5 CFU/mL in Mueller-Hinton broth (Difco, Sparks MD, USA), with Mg^2+ and Ca^2+ concentrations of 4 mg/L each. The compounds were dissolved in H2O and diluted in 0.01% acetic acid, 0.2% BSA (final concentration). Aliquots of 11 µL of 10 × test compounds were then transferred to the appropriate wells with bacterial suspensions. For preparation and transfer of the solutions of the compounds, low-binding sterile tubes and tips (Axygen, Union City CA, USA) were used. After 20 h incubation of covered plates at 35 °C (±2 °C) with circular shaking at 220 rpm, the MICs were read. The antibacterial activity of peptidomimetics was tested against E. coli ATCC 25922, K. pneumoniae ATCC 13883, P. aeruginosa ATCC 27853, P. aeruginosa PAO1, A. baumannii ATCC 19606, S. aureus ATCC 29213, and E. faecalis ATCC 29212.

S. aureus ATCC 29213 = format: cell-based; settings: ATCC 29213, 20 h
Experimental: as §1

P. aeruginosa ATCC 27853 = format: cell-based; settings: ATCC 27853, 20 h
Experimental: as §1

A. baumannii ATCC 19606 = format: cell-based; settings: ATCC 19606, 20 h
Experimental: as §1

P. aeruginosa PAO1 = format: cell-based; settings: PAO1, 20 h
Experimental: as §1

E. faecalis ATCC 29212 = format: cell-based; settings: ATCC 29212, 20 h
Experimental: as §1

E. coli ATCC 25922 = format: cell-based; settings: ATCC 25922, 20 h
Experimental: as §1

in vitro [1] = format: cell-based; settings: human
Experimental: (§2) Side effects affecting cell viability were estimated on the HepG2 cell line ATCC HB-8065. In brief, HepG2 cells were seeded in flat-bottomed 96-well plates at a concentration of 5000 cells per well. At 80−90% confluency, the cells were incubated for 24 h in a humidified incubator (5% CO2, 37 °C). The medium was removed, and the cells were incubated for 48 h in a humidified incubator (5% CO2, 37 °C) with compounds in two-fold serial dilutions. An MTT assay was then performed as previously described. In brief, after incubation with the test compounds, the culture medium was removed and fresh medium with 0.2 mg/mL MTT was added in each well of the plate. After incubation (3 h, 37 °C, 5% CO2), the medium with MTT was removed, and 200 μL dimethyl sulfoxide were added at once to each sample. Absorbance of MTT was measured using spectrophotometer TECAN Infinite M1000 at 540 nm. The relative viability was calculated by using the formula: ODtreated cells × 100/ODcontrol cells. The IC50 values are calculated by using the program Graph Pad Prism® 5.0. For all compounds, the test range was 10–1280 μg/mL.

[2] = tested on: HepG2 cell line ATCC HB-8065; assay: in vitro; format: cell-based; settings: 48 h
Experimental: as §2

in vitro [3] = format: cell-based; settings: human, Hemolytic Activity (percentage hemolysis)
Experimental: The lysis of human red blood cells was measured as previously described, with modifications. In brief, freshly drawn human red blood cells (hRBCs) were washed three times with PBS buffer and centrifuged two times for 5 min at 2500 rpm. A two-fold serial dilution of peptidomimetics in PBS buffer was added to each well in a sterile polypropylene V-bottom 96-well plate to the total volume of 75 μL. A 0.5% v/v hRBC suspension (75 μL in PBS buffer) was added to each well to reach a final volume of 150 μL in each well. The plate was incubated (37 °C) for 60 min, and then the cells were subsequently pelleted by centrifugation at 1000 rpm for 5 min. The supernatants (50 μL) were transferred to clear, flat-bottomed plastic 96-well plates. The concentration of hemoglobin was detected by measuring the OD at 405 nm. The OD of cells incubated with 0.1% SDS defined 100% hemolysis, while the OD of cells incubated with PBS buffer defined 0% hemolysis. The concentrations tested were 200, 400, and 800 μg/mL (only average values for the highest concentration are stated in Table 2).

[4] = Relative hydrophobicity by RP-HPLC (% MeCN at peak elution); format: physicochemical; settings: RP-HPLC gradient 0 → 60% B during 10 min; % MeCN at peak elution calculated from retention time
Experimental: The relative hydrophobicity of each peptidomimetic was measured by reverse-phase high-performance liquid chromatography (RP-HPLC). Typically, the RP-HPLC retention time (or percentage acetonitrile at peak elution) constitutes the preferred measure that allows for comparison of relative hydrophobicity, while log P values of polycationic peptides or peptidomimetics normally are considered unsuitable due to the extreme hydrophilic nature of such compounds [11, 45, 57, 58, 59, 60]. […] For both subgroups III (with cationic amino acid residues and the peptoid analogue of Phe, NPhe, i.e., 9–12) and IV (with cationic amino acid residues and the peptoid analogue of hPhe, NhPhe, i.e., 13–16) only minor differences in hydrophobicity were seen. These observations infer that, when the cationic residues are of a peptoid nature, the side-chain length of these has a […] influence on the hydrophobicity. […] Thus, introduction of additional six methylene groups results, as expected, in increased hydrophobicity.
Starting materials and solvents were purchased from commercial suppliers (Iris Biotech, Markredwitz, Germany; Fluorochem, Hadfield, United Kingdom; and Merck, Darmstadt, Germany) and used without further purification. Water used for analytical and preparative high-performance liquid chromatography (HPLC) was filtered through a 0.22-μm Millipore membrane filter. Purity and retention time of each peptidomimetic were determined by analytical UHPLC by using a Phenomenex Luna C18(2) HST column (100 mm × 3 mm; particle size: 2.5 μm; pore size: 100 Å) on a Shimadzu Prominence and Shimadzu Nexera system using an aqueous acetonitrile (MeCN) gradient with 0.1% trifluoroacetic acid (TFA) added (eluent A: 5:95 MeCN–H2O + 0.1% TFA, eluent B: 95:5 MeCN–H2O + 0.1% TFA); a flow rate of 0.5 mL/min was used. For elution of peptidomimetics, a linear gradient of 0% to 60% B during 10 min was used with UV detection at λ = 220 nm. […] For each peptidomimetic, the percentage of MeCN at peak elution was calculated from the retention time by using the following formula:(1) %MeCN = 0.95 (0.6Rt/10 min.) + 0.05 (1−0.6Rt/10 min.).

[5] = parameters: method as in PMID 29198866; settings: peptoid oligomers; cited from earlier work
human red blood cells = settings: cited from earlier work

| Compound | MIC (K. pneumoniae ATCC 13883) | MIC (S. aureus ATCC 29213) | MIC (P. aeruginosa ATCC 27853) | MIC (A. baumannii ATCC 19606) | MIC (P. aeruginosa PAO1) | MIC (E. faecalis ATCC 29212) | MIC (E. coli ATCC 25922) | viability at 48 h, 1280 µg/mL (in vitro [1]) | IC50 for inhibiting growth of HepG2 cells [2] | hemolysis at 60 min, 800 µg/mL (in vitro [3]) | Hydrophobicity (% MeCN at elution) [4] | Hydrophobicity (% MeCN at peak elution) [5] | Concentration resulting in 10% hemolysis (human red blood cells) |
| --- | --- | --- | --- | --- | --- | --- | --- | --- | --- | --- | --- | --- | --- |
| NCCCNCC(=O)N[C@@H](Cc1ccccc1)C(=O)N(CCCN)CC(=O)N[C@@H](Cc1ccccc1)C(=O)N(CCCN)CC(=O)N[C@@H](Cc1ccccc1)C(=O)N(CCCN)CC(=O)N[C@@H](Cc1ccccc1)C(=O)N(CCCN)CC(=O)N[C@@H](Cc1ccccc1)C(=O)N(CCCN)CC(=O)N[C@@H](Cc1ccccc1)C(N)=O [Peptidomimetic 2] (H-[Gly(N(CH2)3NH2)]F[Gly(N(CH2)3NH2)]F[Gly(N(CH2)3NH2)]F[Gly(N(CH2)3NH2)]F[Gly(N(CH2)3NH2)]F[Gly(N(CH2)3NH2)]F-NH2) | 64 µg/mL (≈ 40.4 µM) | >64 µg/mL | >64 µg/mL | >64 µg/mL | >64 µg/mL | >64 µg/mL | 8 to 16 µg/mL | 62% | >1280 µg/mL | 5% | 35.7% |  |  |
| NCCCCNCC(=O)N[C@@H](Cc1ccccc1)C(=O)N(CCCCN)CC(=O)N[C@@H](Cc1ccccc1)C(=O)N(CCCCN)CC(=O)N[C@@H](Cc1ccccc1)C(=O)N(CCCCN)CC(=O)N[C@@H](Cc1ccccc1)C(=O)N(CCCCN)CC(=O)N[C@@H](Cc1ccccc1)C(=O)N(CCCCN)CC(=O)N[C@@H](Cc1ccccc1)C(N)=O [Peptidomimetic 3] (H-[Nlys]F[Nlys]F[Nlys]F[Nlys]F[Nlys]F[Nlys]F-NH2) | 32 µg/mL (≈ 19.2 µM) | >64 µg/mL | >64 µg/mL | >64 µg/mL | >64 µg/mL | >64 µg/mL | 8 to 16 µg/mL | 52% | 1280 µg/mL | 8% | 35.6% |  |  |
| NCCCCCNCC(=O)N[C@@H](Cc1ccccc1)C(=O)N(CCCCCN)CC(=O)N[C@@H](Cc1ccccc1)C(=O)N(CCCCCN)CC(=O)N[C@@H](Cc1ccccc1)C(=O)N(CCCCCN)CC(=O)N[C@@H](Cc1ccccc1)C(=O)N(CCCCCN)CC(=O)N[C@@H](Cc1ccccc1)C(=O)N(CCCCCN)CC(=O)N[C@@H](Cc1ccccc1)C(N)=O [Peptidomimetic 4] (H-[N(5-aminopentyl)Gly]F[N(5-aminopentyl)Gly]F[N(5-aminopentyl)Gly]F[N(5-aminopentyl)Gly]F[N(5-aminopentyl)Gly]F[N(5-aminopentyl)Gly]F-NH2) | 64 µg/mL (≈ 36.5 µM) | >64 µg/mL | >64 µg/mL | 64 µg/mL (≈ 36.5 µM) | >64 µg/mL | >64 µg/mL | 4 to 8 µg/mL | 49% | 1280 µg/mL | 9% | 36.6% |  |  |
| NCCCC[C@H](NC(=O)CN(Cc1ccccc1)C(=O)[C@H](CCCCN)NC(=O)CN(Cc1ccccc1)C(=O)[C@H](CCCCN)NC(=O)CN(Cc1ccccc1)C(=O)[C@H](CCCCN)NC(=O)CN(Cc1ccccc1)C(=O)[C@H](CCCCN)NC(=O)CN(Cc1ccccc1)C(=O)[C@@H](N)CCCCN)C(=O)N(CC(N)=O)Cc1ccccc1 [Peptidomimetic 11] (H-K[Nphe]K[Nphe]K[Nphe]K[Nphe]K[Nphe]K[Nphe]-NH2) | 64 µg/mL (≈ 38.3 µM) | >64 µg/mL | 4 µg/mL (≈ 2.4 µM) | >64 µg/mL | 8 to 16 µg/mL | >64 µg/mL | 4 to 8 µg/mL | 76% | >1280 µg/mL | 10% | 36.9% |  |  |
| H-(NLys-Nspe-Nspe)4-NH2 |  |  |  |  |  |  |  |  |  |  |  | 53.6 % MeCN | 9.1 µM |
